Results from patent publication EP3800188A1, “SUBSTITUTED PYRAZOLOPYRIMIDINES AS IRAK4 INHIBITORS” (Bayer AG, priority 2019, dated 2021).

These compounds were tested against T1, human IRAK4 (Homo sapiens, UniProt Q9NWZ3) (assay: Human IRAK4 kinase activity inhibition assay (IRAK4 TR-FRET assay)). Settings: 1 mM ATP, GST-human IRAK4, average or median values.
T1 construct: GST (N); made in house; host or cells: baculovirus-infected Hi5 (BTI-TN-5B1-4) insect cells
T1 sequence (Q9NWZ3 1-460): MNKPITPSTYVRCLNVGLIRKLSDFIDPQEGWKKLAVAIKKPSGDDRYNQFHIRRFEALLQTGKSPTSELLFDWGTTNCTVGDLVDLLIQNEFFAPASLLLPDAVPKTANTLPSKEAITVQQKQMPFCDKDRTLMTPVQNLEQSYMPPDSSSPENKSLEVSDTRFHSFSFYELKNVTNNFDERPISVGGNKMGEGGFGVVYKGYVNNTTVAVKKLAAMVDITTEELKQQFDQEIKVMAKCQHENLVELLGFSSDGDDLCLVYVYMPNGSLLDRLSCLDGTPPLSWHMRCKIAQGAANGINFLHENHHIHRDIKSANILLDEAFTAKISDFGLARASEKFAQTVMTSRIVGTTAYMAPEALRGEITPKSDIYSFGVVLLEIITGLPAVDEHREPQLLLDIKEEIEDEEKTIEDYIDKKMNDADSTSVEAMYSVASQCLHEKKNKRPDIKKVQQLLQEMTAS
Assay type: biochemical
Procedure: The IRAK4-inhibitory activity of the inventive substances was measured in the IRAK4 TR-FRET assay (TR-FRET = Time Resolved Fluorescence Resonance Energy Transfer) described hereinafter.
Recombinant fusion protein from N-terminal GST (glutathione S-transferase) and human IRAK4, expressed in baculovirus-infected insect cells (Hi5, BTI-TN-5B1-4, cell line purchased from Invitrogen, catalogue No. B855-02) and purified via affinity chromatography, was used as enzyme. The substrate used for the kinase reaction was the biotinylated peptide biotin-Ahx-[…] (C-terminus in amide form) which can be purchased, for example, from Biosyntan GmbH (Berlin-Buch). For the assay, 11 different concentrations in the range from 20 µM to 0.073 nM were prepared from a 2 mM DMSO solution of the test substance. 50 nl of the respective 100fold concentrated test compound solutions in DMSO were pipetted into a black low-volume 384-well microtitre plate or a black 1536-well microtiter plate (both Greiner Bio-One, Frickenhausen, Germany), 2 µl of a solution of IRAK4 in assay buffer [50 mM HEPES pH 7.5, 5mM MgCl2, 1.0 mM dithiothreitol, 30 µM activated sodium orthovanadate, 0.1% (w/v) of bovine gamma-globulin (BGG) 0.04% (v/v) nonidet-P40 (Sigma)] were added and the mixture was incubated for 15 min to allow prebinding of the substances to the enzyme prior to the kinase reaction. […] The concentration of the IRAK4 was adjusted to the respective activity of the enzyme and set such that the assay was carried out in the linear range. Typical concentrations were in the order of about 0.2 nM. The reaction was stopped by addition of 5 µl of a solution of TR-FRET detection reagents [0.1 µM streptavidin-XL665 (Cisbio Bioassays; France, catalogue No. 610SAXLG)] and 1.5 nM anti-phosphoserine antibody [Merck Millipore, "STK Antibody", catalogue No. 35-002] and 0.6 nM LANCE EU-W1024-labelled anti-mouse-IgG antibody (Perkin-Elmer, product No. AD0077; alternatively, it is possible to use a terbium cryptate-labelled anti-mouse-IgG antibody from Cisbio Bioassays) in aqueous EDTA solution (100 mM EDTA, 0.4 % [w/v] bovine serum albumin [BSA] in 25 mM HEPES pH 7.5). The resulting mixture was incubated at 22°C for 1 h to allow formation of a complex of the biotinylated phosphorylated substrate and the detection reagents. The amount of the phosphorylated substrate was then evaluated by measuring the resonance energy transfer from europium chelate-labelled anti-mouse-IgG antibody to streptavidin-XL665. To this end, the fluorescence emissions at 620 nm and 665 nm were measured after excitation at 350 nm in a TR-FRET measuring instrument, for example a Rubystar (BMG Labtechnologies, Offenburg, Germany) or a Viewlux (Perkin-Elmer). The ratio of the emissions at 665 nm and 622 nm was taken as a measure of the amount of phosphorylated substrate. The data were normalized (enzyme reaction without test substance = 0% inhibition; all other assay components but no enzyme = 100% inhibition).

Row | Structure (SMILES) | IC50 [nM]
1 | O=S1(=O)CCC(Nc2nc(N3CCC(O)(C(F)(F)F)C3)c3cnn(-c4cccc(C(F)F)c4)c3n2)CC1 (centres unmarked) [II-15, 1-{1-[3-(difluoromethyl)phenyl]-6-[(1,1-dioxidotetrahydro-2H-thiopyran-4-yl)amino]-1H-pyrazolo[3,4-d]pyrimidin-4-yl}-3-(trifluoromethyl)pyrrolidin-3-ol] | 45.2
2 | O[C@@H]1CC[C@@H]1Nc1nc(N2CC(N3CCOCC3)C2)c2cnn(-c3cccc(C(F)(F)F)c3)c2n1 (relative stereo) [Example I-73, rel-(1R,2S)-2-({4-[3-(morpholin-4-yl)azetidin-1-yl]-1-[3-(trifluoromethyl)phenyl]-1H-pyrazolo[3,4-d]pyrimidin-6-yl}amino)cyclobutanol] | 28
3 | CC(C)(O)C1CCN(c2nc(N[C@H]3C[C@@](C)(C(=O)O)C3)nc3c2cnn3-c2cccc(C(F)(F)F)c2)CC1 [Example I-66, cis-3-({4-[4-(2-hydroxypropan-2-yl)piperidin-1-yl]-1-[3-(trifluoromethyl)phenyl]-1H-pyrazolo[3,4-d]pyrimidin-6-yl}amino)-1-methylcyclobutanecarboxylic acid] | 138
4 | CN(C)C1CN(c2nc(NC3CC(F)(F)C3)nc3c2cnn3-c2cccc(C(F)(F)F)c2)C1 [Example I-54, N-(3,3-difluorocyclobutyl)-4-[3-(dimethylamino)azetidin-1-yl]-1-[3-(trifluoromethyl)-phenyl]-1H-pyrazolo[3,4-d]pyrimidin-6-amine] | 297
5 | CN(C)C1CN(c2nc(NC3CCS(=O)(=O)CC3)nc3c2cnn3-c2cccc(C(F)(F)F)c2)C1 [Example I-42, 4-[3-(dimethylamino)azetidin-1-yl]-N-(1,1-dioxidotetrahydro-2H-thiopyran-4-yl)-1-[3-(trifluoromethyl)phenyl]-1H-pyrazolo[3,4-d]pyrimidin-6-amine] | 32
6 | O[C@H]1COC[C@@H]1Nc1nc(N2CC(N3CCOCC3)C2)c2cnn(-c3cccc(C(F)(F)F)c3)c2n1 [Example I-69, (3R,4S)-4-({4-[3-(morpholin-4-yl)azetidin-1-yl]-1-[3-(trifluoromethyl)phenyl]-1H-pyrazolo[3,4-d]pyrimidin-6-yl}amino)tetrahydrofuran-3-ol] | 26.2
7 | CC(C)(O)C1CCN(c2nc(N[C@@H]3CCNC3=O)nc3c2cnn3-c2cccc(C(F)(F)F)c2)CC1 [Example I-15, (3R)-3-({4-[4-(2-hydroxypropan-2-yl)piperidin-1-yl]-1-[3-(trifluoromethyl)phenyl]-1H-pyrazolo[3,4-d]pyrimidin-6-yl}amino)pyrrolidin-2-one] | 62
8 | CC(C)(O)C1CCN(c2nc(N[C@H]3CNC(=O)C3)nc3c2cnn3-c2cccc(C(F)(F)F)c2)CC1 [Example I-2-2, (4R)-4-({4-[4-(2-hydroxypropan-2-yl)piperidin-1-yl]-1-[3-(trifluoromethyl)phenyl]-1H-pyrazolo[3,4-d]pyrimidin-6-yl}amino)pyrrolidin-2-one] | 31.4
9 | CN1CC[C@H](Nc2nc(N3CC(CS(C)(=O)=O)C3)c3cnn(-c4cccc(C(F)(F)F)c4)c3n2)C1 [Example I-36, N-[(3S)-1-methylpyrrolidin-3-yl]-4-{3-[(methylsulfonyl)methyl]azetidin-1-yl}-1-[3-(trifluoromethyl)phenyl]-1H-pyrazolo[3,4-d]pyrimidin-6-amine] | 45
10 | CC(C)(O)C1CCN(c2nc(NC3CCCS(=O)(=O)C3)nc3c2cnn3-c2cccc(C(F)(F)F)c2)CC1 (centres unmarked) [Example I-10, 2-(1-{6-[(1,1-dioxidotetrahydro-2H-thiopyran-3-yl)amino]-1-[3-(trifluoromethyl)phenyl]-1H-pyrazolo[3,4-d]pyrimidin-4-yl)piperidin-4-yl)propan-2-ol] | 131
11 | CCS(=O)(=O)N1CC(Nc2nc(N3C[C@@H](O)[C@H](O)C3)c3cnn(-c4cccc(C(F)(F)F)c4)c3n2)C1 [Example I-84, (3R,4R)-1-(6-{[1-(ethylsulfonyl)azetidin-3-yl]amino}-1-[3-(trifluoromethyl)phenyl]-1H-pyrazolo[3,4-d]pyrimidin-4-yl)pyrrolidine-3,4-diol] | 48.3
12 | CC(C)(O)C1CCN(c2nc(N[C@H]3C[C@@](O)(C(F)(F)F)C3)nc3c2cnn3-c2cccc(C(F)(F)F)c2)CC1 [Example I-63, trans-3-({4-[4-(2-hydroxypropan-2-yl)piperidin-1-yl]-1-[3-(trifluoromethyl)phenyl]-1H-pyrazolo[3,4-d]pyrimidin-6-yl}amino)-1-(trifluoromethyl)cyclobutanol] | 30.6

The next compounds have a lower IC50 than those just listed; values first:

Row | IC50 [nM] | Structure (SMILES)
13 | 12 | CN1CC[C@H](Nc2nc(N3CCC(CC(C)(C)O)CC3)c3cnn(-c4cccc(C(F)(F)F)c4)c3n2)C1 [Example I-25-2, 2-methyl-1-[1-(6-{[(3S)-1-methylpyrrolidin-3-yl]amino}-1-[3-(trifluoromethyl)phenyl]-1H-pyrazolo[3,4-d]pyrimidin-4-yl)piperidin-4-yl]propan-2-ol]
14 | 16.2 | CS(=O)(=O)[C@H]1C[C@H](Nc2nc(N3CC(F)C3)c3cnn(-c4cccc(C(F)(F)F)c4)c3n2)C1 [Example I-99, 4-(3-fluoroazetidin-1-yl)-N-[trans-3-(methylsulfonyl)cyclobutyl]-1-[3-(trifluoromethyl)-phenyl]-1H-pyrazolo[3,4-d]pyrimidin-6-amine]
15 | 16.2 | CS(=O)(=O)N1CC(Nc2nc(N3C[C@@H](O)[C@H](F)C3)c3cnn(-c4cccc(C(F)F)c4)c3n2)C1 [II-23, (3R,4R)-1-(1-[3-(difluoromethyl)phenyl]-6-{[1-(methylsulfonyl)azetidin-3-yl]amino}-1H-pyrazolo[3,4-d]pyrimidin-4-yl)-4-fluoropyrrolidin-3-ol]
16 | 15.3 | CS(=O)(=O)C1CN(c2nc(N[C@H]3C[C@](C)(N)C3)nc3c2cnn3-c2cccc(C(F)(F)F)c2)C1 [Example I-71, trans-1-methyl-N^3-{4-[3-(methylsulfonyl)azetidin-1-yl]-1-[3-(trifluoromethyl)phenyl]-1H-pyrazolo[3,4-d]pyrimidin-6-yl}cyclobutane-1,3-diamine]
17 | 8.1 | O[C@H]1CN(c2nc(N[C@H]3C[C@H](O)C3)nc3c2cnn3-c2cccc(C(F)(F)F)c2)C[C@@H]1F [Example I-96, (3S,4S)-4-fluoro-1-(6-{[(1r,3S)-3-hydroxycyclobutyl]amino}-1-[3-(trifluoromethyl)-phenyl]-1H-pyrazolo[3,4-d]pyrimidin-4-yl)pyrrolidin-3-ol]
18 | 19.1 | CC(C)(O)C1CCN(c2nc(N[C@@H]3CNC(=O)C3)nc3c2cnn3-c2cccc(OC(F)(F)F)c2)CC1 [III-1, (4S)-4-({4-[4-(2-hydroxypropan-2-yl)piperidin-1-yl]-1-[3-(trifluoromethoxy)phenyl]-1H-pyrazolo[3,4-d]pyrimidin-6-yl}amino)pyrrolidin-2-one]
19 | 12.2 | CC(C)(O)C1CCN(c2nc(NC3CCS(=O)(=O)C3)nc3c2cnn3-c2cccc(C(F)(F)F)c2)CC1 (centres unmarked) [Example I-4-1, 2-(1-{6-[(1,1-dioxidotetrahydrothiophen-3-yl)amino]-1-[3-(trifluoromethyl)phenyl]-1H-pyrazolo[3,4-d]pyrimidin-4-yl}piperidin-4-yl)propan-2-ol]
20 | 25 | O[C@H]1COC[C@H]1Nc1nc(N2CC(N3CCOCC3)C2)c2cnn(-c3cccc(C(F)(F)F)c3)c2n1 (relative stereo) [Example I-70, rel-(3R,4R)-4-({4-[3-(morpholin-4-yl)azetidin-1-yl]-1-[3-(trifluoromethyl)phenyl]-1H-pyrazolo[3,4-d]pyrimidin-6-yl}amino)tetrahydrofuran-3-ol]
